# According to patent US12492193B2, “Pyrazole derivatives for the treatment of cystic fibrosis” (Fondazione Istituto Italiano Di Tecnologia, priority 2017, dated 2025):
# Molecular target: T1, mutant CFTR (Homo sapiens, UniProt P13569, DEL508-508)
# T1 construct: expressed in transfected cells
# Test: Fluorescence (HS-YFP) assay for CFTR activity, corrector assay
# Type: cell-based
# Conditions: CFBE41o- and FRT cells with stable expression of mutant CFTR, 24 h compound treatment
# Method: Fluorescence Assay for CFTR Activity
# Mutant CFTR activity was determined with the functional assay based on the halide-sensitive yellow fluorescent protein, HS-YFP (Galietta et al., FEBS Lett 499: 220-224, 2001). CFBE41o- and FRT cells with stable expression of mutant CFTR and HS-YFP were plated on clear-bottom 96-well black microplates (Code 3603, Corning Life Sciences) at a density of 50,000 cells/well and kept at 37° C. in 5% CO2 for 24 hours. For the corrector assay, cells were treated for further 24 hours with test compounds, vehicle (DMSO), or the positive control VX-809. After treatment, the culture medium was removed and cells in each well were stimulated for 30 min at 37° C. with 60 μL PBS (containing 137 mM NaCl, 2.7 mM KCl, 8.1 mM Na2HPO4, 1.5 mM KH2PO4, 1 mM CaCl2, and 0.5 mM MgCl2) plus forskolin (20 μM) and genistein (50 μM).
# For determination of potentiator activity on G551D-CFTR or G1349D-CFTR, cells were directly stimulated with forskolin plus test compound without previous incubation at low temperature. At the time of assay, microplates carrying CFBE41o- or FRT cells were transferred to microplate readers (BMG Labtech) equipped with high-quality excitation (HQ500/20X: 500±10 nm) and emission (HQ535/30M: 535±15 nm) filters for YFP (Chroma Technology). The assay consisted of a continuous 14 s fluorescence reading with 2 s before and 12 s after injection of an iodide-containing solution (165 μL of a modified PBS containing I^− instead of Cl^−; final I^− concentration in the well: 100 mM). Data were normalized to the initial background-subtracted fluorescence. Enhanced CFTR activity, induced by correctors and/or potentiators, results in accelerated I^− influx that in turn causes faster HS-YFP quenching (Pedemonte et al., Mol Pharmacol 68:1736-1746, 2005; Pedemonte et al., J Clin Invest 115:2564-2571, […]). To determine fluorescence quenching rate associated with I^− influx, the […] 10 s of data for each well were fitted with an exponential function to extrapolate initial slope (dF/dt).
# EC50 obtained are illustrated in table 1 wherein +: EC50>2 μM; ++: 1.0 μM<EC50<2 μM; +++: EC50<1 μM.
# T1 sequence (P13569 with tags, fused parts or gaps DEL508-508): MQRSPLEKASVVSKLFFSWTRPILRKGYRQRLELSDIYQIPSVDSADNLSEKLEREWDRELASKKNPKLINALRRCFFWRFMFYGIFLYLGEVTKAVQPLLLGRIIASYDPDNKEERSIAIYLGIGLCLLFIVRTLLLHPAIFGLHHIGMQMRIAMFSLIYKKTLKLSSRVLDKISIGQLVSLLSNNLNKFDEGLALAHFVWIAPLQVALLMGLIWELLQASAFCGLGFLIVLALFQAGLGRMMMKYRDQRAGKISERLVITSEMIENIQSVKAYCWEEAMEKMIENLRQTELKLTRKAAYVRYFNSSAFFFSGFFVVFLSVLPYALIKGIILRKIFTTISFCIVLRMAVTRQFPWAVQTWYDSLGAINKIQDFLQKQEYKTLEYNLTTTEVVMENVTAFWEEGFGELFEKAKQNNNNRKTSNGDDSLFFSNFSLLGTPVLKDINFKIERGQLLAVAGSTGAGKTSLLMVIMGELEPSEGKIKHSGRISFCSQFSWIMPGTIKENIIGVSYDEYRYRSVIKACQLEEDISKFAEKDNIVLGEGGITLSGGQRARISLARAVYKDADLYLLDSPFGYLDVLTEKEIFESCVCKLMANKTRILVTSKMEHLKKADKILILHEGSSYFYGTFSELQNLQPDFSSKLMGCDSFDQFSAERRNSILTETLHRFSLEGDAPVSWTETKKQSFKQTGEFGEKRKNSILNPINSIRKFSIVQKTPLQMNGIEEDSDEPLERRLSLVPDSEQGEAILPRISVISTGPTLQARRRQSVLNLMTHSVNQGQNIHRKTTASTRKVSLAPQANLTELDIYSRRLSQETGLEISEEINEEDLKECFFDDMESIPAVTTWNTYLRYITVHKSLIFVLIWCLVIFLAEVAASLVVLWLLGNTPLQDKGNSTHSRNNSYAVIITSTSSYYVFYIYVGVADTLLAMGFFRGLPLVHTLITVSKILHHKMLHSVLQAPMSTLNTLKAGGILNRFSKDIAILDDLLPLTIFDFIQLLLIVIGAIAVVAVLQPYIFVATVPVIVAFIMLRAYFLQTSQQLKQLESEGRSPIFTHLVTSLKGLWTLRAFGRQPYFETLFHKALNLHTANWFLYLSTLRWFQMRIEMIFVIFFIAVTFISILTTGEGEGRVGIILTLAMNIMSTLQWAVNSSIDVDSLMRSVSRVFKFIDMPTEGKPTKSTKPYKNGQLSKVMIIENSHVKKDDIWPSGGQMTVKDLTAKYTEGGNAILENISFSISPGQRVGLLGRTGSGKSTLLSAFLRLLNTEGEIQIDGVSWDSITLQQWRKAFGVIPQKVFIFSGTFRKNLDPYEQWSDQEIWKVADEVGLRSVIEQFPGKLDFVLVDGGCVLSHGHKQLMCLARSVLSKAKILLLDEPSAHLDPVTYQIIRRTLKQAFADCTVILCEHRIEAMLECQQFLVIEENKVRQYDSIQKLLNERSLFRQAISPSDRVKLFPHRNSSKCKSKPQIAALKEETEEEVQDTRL
row,SMILES,EC50 [nM]
1,"COc1ccc(N(C)C(=O)c2cccc(-n3nc(C)c(Cl)c3C)c2)cn1 [compound 021, 3-(4-Chloro-3,5-dimethyl-pyrazol-1-yl)-N-(6-methoxy-3-pyridyl)-N-methyl-benzamide]",> 2000
2,"Cc1nn(-c2cccc(C(=O)N(C)c3ccc4c(c3)ncn4C)c2)c(C)c1Cl [compound 024, 3-(4-Chloro-3,5-dimethyl-pyrazol-1-yl)-N-methyl-N-(1-methylbenzimidazol-5-yl)benzamide]",> 2000
3,"Cc1nc2cc(N(C)C(=O)c3cccc(-n4nc(C)c(Cl)c4C)c3)ccc2o1 [compound 025, 3-(4-Chloro-3,5-dimethyl-pyrazol-1-yl)-N-methyl-N-(2-methyl-1,3-benzoxazol-5-yl)benzamide]",> 2000
4,"Cc1nn(-c2cccc(C(=O)N(C)c3cccc4c3OC(F)(F)O4)c2)c(C)c1Cl [compound 026, 3-(4-Chloro-3,5-dimethyl-pyrazol-1-yl)-N-(2,2-difluoro-1,3-benzodioxol-4-yl)-N-methyl-benzamide]",> 2000
5,"Cc1nn(-c2cccc(C(=O)N(C)c3ccc4ocnc4c3)c2)c(C)c1Cl [compound 029, N-(1,3-Benzoxazol-5-yl)-3-(4-chloro-3,5-dimethyl-pyrazol-1-yl)-N-methyl-benzamide]",> 2000
6,"Cc1nn(-c2cccc(C(=O)N(c3ccc4c(c3)OCCO4)C3CC3)c2)c(C)c1Cl [compound 030, 3-(4-Chloro-3,5-dimethyl-pyrazol-1-yl)-N-cyclopropyl-N-(2,3-dihydro-1,4-benzodioxin-6-yl)benzamide]",> 2000
7,"Cc1ccc(-n2nc(C)c(Cl)c2C)cc1C(=O)N(C)c1ccc2c(c1)OCCO2 [compound 031, 5-(4-chloro-3,5-dimethyl-pyrazol-1-yl)-N-(2,3-dihydro-1,4-benzodioxin-6-yl)-N, 2-dimethyl-benzamide]",> 2000
8,"CN(C(=O)c1cccc(-n2cc(Cl)cn2)c1)c1ccc2c(c1)OCCO2 [compound 033, 3-(4-Chloropyrazol-1-yl)-N-(2,3-dihydro-1,4-benzodioxin-6-yl)-N-methyl-benzamide]",> 2000
9,"Cc1nn(-c2cccc(C(=O)N(C)c3ccc4c(c3)OC(C)(C)O4)c2)c(C)c1Cl [compound 034, 3-(4-Chloro-3,5-dimethyl-pyrazol-1-yl)-N-(2,2-dimethyl-1,3-benzodioxol-5-yl)-N-methyl-benzamide]",> 2000
10,"Cc1nn(-c2cccc(S(=O)(=O)N(C)c3ccc4c(c3)OC(F)(F)O4)c2)c(C)c1Cl [compound 035, 3-(4-Chloro-3,5-dimethyl-pyrazol-1-yl)-N-(2,2-difluoro-1,3-benzodioxol-5-yl)-N-methyl-benzenesulfonamide]",> 2000
11,"Cc1nn(-c2cccc(C(=O)N(C)c3ccc4c(c3)OCCN4)c2)c(C)c1Cl [compound 036, 3-(4-Chloro-3,5-dimethyl-pyrazol-1-yl)-N-(3,4-dihydro-2H-1,4-benzoxazin-4-ium-7-yl)-N-methyl-benzamide 2,2,2-trifluoroacetate]",> 2000
12,"Cc1nn(-c2cccc(C(=O)N(C)c3ccc4c(c3)NCCO4)c2)c(C)c1Cl [compound 038, 3-(4-Chloro-3,5-dimethyl-pyrazol-1-yl)-N-(3,4-dihydro-2H-1,4-benzoxazin-4-ium-6-yl)-N-methyl-benzamide 2,2,2-trifluoroacetate]",> 2000
13,"CCOC(=O)c1c(C)nn(-c2cccc(C(=O)N(C)c3ccc4c(c3)OCO4)c2)c1C [compound 043, Ethyl 1-[3-[1,3-benzodioxol-5-yl(methyl)carbamoyl]phenyl]-3,5-dimethyl-pyrazole-4-carboxylate]",> 2000
14,Cc1nn(-c2cccc(C(=O)N(C)c3ccc4c(c3)CCCC4)c2)c(C)c1Cl [compound 044],> 2000
15,"Cc1nn(-c2cccc(C(=O)N(C)c3ccc4c(c3)OCO4)c2)c(C)c1C(=O)O [compound 048, 1-[3-[1,3-Benzodioxol-5-yl(methyl)carbamoyl]phenyl]-3,5-dimethyl-pyrazole-4-carboxylic acid]",> 2000
16,"Cc1nn(-c2cccc(C(=O)N(C)c3ccc4c(c3)OCO4)n2)c(C)c1Cl [compound 050, N-(1,3-Benzodioxol-5-yl)-6-(4-chloro-3,5-dimethyl-pyrazol-1-yl)-N-methyl-pyridine-2-carboxamide]",> 2000

# Next, values leading:
row,EC50 [nM],SMILES
1,> 2000,"CN(C(=O)c1cccc(-n2cccn2)c1)c1ccc2c(c1)OCCO2 [compound 010, N-(2,3-Dihydro-1,4-benzodioxin-6-yl)-N-methyl-3-pyrazol-1-yl-benzamide]"
2,> 2000,"Cc1cc(C)n(-c2cccc(C(=O)N(C)c3ccc4c(c3)OCCO4)c2)n1 [compound 011, N-(2,3-Dihydro-1,4-benzodioxin-6-yl)-3-(3,5-dimethylpyrazol-1-yl)-N-methyl-benzamide]"
3,> 2000,"COc1ccc(N(C)C(=O)c2cccc(-n3nc(C)c(Cl)c3C)c2)cc1OC [compound 014, 3-(4-Chloro-3,5-dimethyl-pyrazol-1-yl)-N-(3,4-dimethoxyphenyl)-N-methyl-benzamide]"
4,< 1000,"Cc1nn(-c2cccc(C(=O)N(C)c3ccc4c(c3)OCO4)c2)c(C)c1Cl [compound 015, N-(1,3-Benzodioxol-5-yl)-3-(4-chloro-3,5-dimethyl-pyrazol-1-yl)-N-methyl-benzamide]"
5,> 2000,"Cc1cc(C)n(-c2cccc(S(=O)(=O)N(C)c3ccc4c(c3)OCCO4)c2)n1 [compound 017, N-(2,3-dihydro-1,4-benzodioxin-6-yl)-3-(3,5-dimethylpyrazol-1-yl)-N-methyl-benzenesulfonamide]"
6,1000 to 2000,"CCN(C(=O)c1cccc(-n2nc(C)c(Cl)c2C)c1)c1ccc2c(c1)OC(F)(F)O2 [compound 019, 3-(4-Chloro-3,5-dimethyl-pyrazol-1-yl)-N-(2,2-difluoro-1,3-benzodioxol-5-yl)-N-ethyl-benzamide]"
7,1000 to 2000,"Cc1nn(-c2cccc(S(=O)(=O)N(C)c3ccc4c(c3)OCCO4)c2)c(C)c1Cl [compound 020, 3-(4-chloro-3,5-dimethyl-pyrazol-1-yl)-N-(2,3-dihydro-1,4-benzodioxin-6-yl)-N-methyl-benzenesulfonamide]"
8,< 1000,"Cc1nn(-c2cccc(C(=O)N(C)c3ccc4c(c3)CCC4)c2)c(C)c1Cl [compound 023, 3-(4-chloro-3,5-dimethyl-pyrazol-1-yl)-N-indan-5-yl-N-methyl-benzamide]"
9,< 1000,"Cc1nn(-c2cccc(C(=O)N(C)c3cc4c(cc3Cl)OCCO4)c2)c(C)c1Cl [compound 032, N-(6-chloro-2,3-dihydro-1,4-benzodioxin-7-yl)-3-(4-chloro-3,5-dimethyl-pyrazol-1-yl)-N-methyl-benzamide]"
10,1000 to 2000,"Cc1nn(-c2cccc(C(=O)N(C)c3ccc4c(c3)OCCO4)c2)c(C)c1C(C)(C)C [compound 037, 3-(4-tert-Butyl-3,5-dimethyl-pyrazol-1-yl)-N-(2,3-dihydro-1,4-benzodioxin-6-yl)-N-methyl-benzamide]"
11,1000 to 2000,"[2H]C([2H])([2H])N(C(=O)c1cccc(-n2nc(C)c(Cl)c2C)c1)c1ccc2c(c1)OC(F)(F)O2 [compound 039, 3-(4-Chloro-3,5-dimethyl-pyrazol-1-yl)-N-(2,2-difluoro-1,3-benzodioxol-5-yl)-N-(trideuteriomethyl) benzamide]"
12,1000 to 2000,"Cc1cc2c(cc1N(C)C(=O)c1cccc(-n3nc(C)c(Cl)c3C)c1)OCO2 [compound 042, 3-(4-chloro-3,5-dimethyl-pyrazol-1-yl)-N-methyl-N-(6-methyl-1,3-benzodioxol-5-yl)benzamide]"
13,< 1000,"Cc1nc2ccc(N(C)C(=O)c3cccc(-n4nc(C)c(Cl)c4C)c3)cc2o1 [compound 047, 3-(4-Chloro-3,5-dimethyl-pyrazol-1-yl)-N-methyl-N-(2-methyl-1,3-benzoxazol-6-yl)benzamide]"
14,< 1000,"Cc1nn(-c2cccc(C(=O)N(C)c3cc4c(cc3Cl)OC(F)(F)O4)c2)c(C)c1Cl [compound 049, N-(6-Chloro-2,2-difluoro-1,3-benzodioxol-5-yl)-3-(4-chloro-3,5-dimethyl-pyrazol-1-yl)-N-methyl-benzamide]"
15,1000 to 2000,"Cc1nn(-c2cccc(C(=O)Nc3ccc4oc(C(F)(F)F)nc4c3)c2)c(C)c1Cl [compound 054, 3-(4-Chloro-3,5-dimethyl-pyrazol-1-yl)-N-[2-(trifluoromethyl)-1,3-benzoxazol-5-yl]benzamide]"
16,1000 to 2000,"Cc1nn(-c2cccc(C(=O)N(C)c3ccc4oc(C5CC5)nc4c3)c2)c(C)c1Cl [compound 055, 3-(4-Chloro-3,5-dimethyl-pyrazol-1-yl)-N-(2-cyclopropyl-1,3-benzoxazol-5-yl)-N-methyl-benzamide]"
